Reference: PMC10104807, “Modulation of tau tubulin kinases (TTBK1 and TTBK2) impacts ciliogenesis” (Scientific Reports, 2023)

What was measured:
[1] = biological target: T1, PRKD2 (Homo sapiens, UniProt Q9BZL6); assay: DiscoverX scanMAX binding assay; conditions: 1 μM
T1 construct: purchased Eurofins (radiometric) / Eurofins DiscoverX scanMAX / Reaction Biology / SignalChem
In short: (§1)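 Compound was profiled at 1 µM in a binding-format (not enzymatic) kinase panel covering 403 wild-type human kinases. Binding was expressed as percent of control.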

[2] = biological target: T2, HIPK1 (Homo sapiens, UniProt Q86Z02); assay: DiscoverX scanMAX binding assay; conditions: 1 μM
T2 construct: purchased Eurofins (radiometric) / Eurofins DiscoverX scanMAX / Reaction Biology / SignalChem
In short: as §1

[3] = biological target: T3, TSSK3 (Homo sapiens, UniProt Q96PN8); assay: DiscoverX scanMAX binding assay; conditions: 1 μM
T3 construct: purchased Eurofins
T3 sequence (Q96PN8 1-268): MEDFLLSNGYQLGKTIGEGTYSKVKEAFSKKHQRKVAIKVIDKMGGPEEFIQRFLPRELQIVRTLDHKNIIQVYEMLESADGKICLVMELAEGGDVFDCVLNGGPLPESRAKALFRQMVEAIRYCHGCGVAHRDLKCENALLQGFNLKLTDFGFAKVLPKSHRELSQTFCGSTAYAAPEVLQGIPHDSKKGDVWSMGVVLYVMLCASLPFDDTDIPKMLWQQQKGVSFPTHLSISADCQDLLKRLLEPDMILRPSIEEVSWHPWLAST
In short: as §1

[4] = biological target: T4, NIK (Homo sapiens, UniProt Q99558); assay: DiscoverX scanMAX binding assay; conditions: 1 μM
T4 construct: purchased Eurofins (radiometric) / Eurofins DiscoverX scanMAX / Reaction Biology / SignalChem
T4 sequence (Q99558 whole entry): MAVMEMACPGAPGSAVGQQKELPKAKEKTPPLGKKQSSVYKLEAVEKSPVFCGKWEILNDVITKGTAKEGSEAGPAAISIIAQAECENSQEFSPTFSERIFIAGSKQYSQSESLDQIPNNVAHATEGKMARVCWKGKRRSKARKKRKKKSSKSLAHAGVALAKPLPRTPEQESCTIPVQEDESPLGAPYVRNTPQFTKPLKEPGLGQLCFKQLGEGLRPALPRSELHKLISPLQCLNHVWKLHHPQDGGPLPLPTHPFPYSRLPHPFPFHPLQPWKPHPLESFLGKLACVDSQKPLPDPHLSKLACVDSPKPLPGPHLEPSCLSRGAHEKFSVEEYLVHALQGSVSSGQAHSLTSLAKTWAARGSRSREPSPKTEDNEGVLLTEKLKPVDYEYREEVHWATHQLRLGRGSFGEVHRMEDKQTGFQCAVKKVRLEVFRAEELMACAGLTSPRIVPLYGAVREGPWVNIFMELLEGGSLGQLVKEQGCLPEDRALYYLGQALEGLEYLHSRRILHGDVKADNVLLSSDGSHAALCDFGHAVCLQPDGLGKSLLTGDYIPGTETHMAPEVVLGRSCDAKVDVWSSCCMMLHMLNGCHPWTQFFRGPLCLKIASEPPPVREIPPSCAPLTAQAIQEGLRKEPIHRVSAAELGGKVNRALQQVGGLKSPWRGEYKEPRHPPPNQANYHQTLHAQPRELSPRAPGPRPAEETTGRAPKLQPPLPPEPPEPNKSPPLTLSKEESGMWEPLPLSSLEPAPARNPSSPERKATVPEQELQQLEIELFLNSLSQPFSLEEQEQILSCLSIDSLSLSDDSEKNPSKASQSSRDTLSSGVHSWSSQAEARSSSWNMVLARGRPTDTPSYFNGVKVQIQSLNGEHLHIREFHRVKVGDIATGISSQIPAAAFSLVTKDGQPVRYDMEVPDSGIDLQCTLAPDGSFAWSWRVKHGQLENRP
In short: as §1

[5] = biological target: T5, CDC2L1 (Homo sapiens, UniProt P21127); assay: DiscoverX scanMAX binding assay; conditions: 1 μM
T5 construct: purchased Eurofins (radiometric) / Eurofins DiscoverX scanMAX / Reaction Biology / SignalChem
In short: as §1

[6] = biological target: T6, SNARK (Homo sapiens, UniProt Q9H093); assay: DiscoverX scanMAX binding assay; conditions: 1 μM
T6 construct: purchased Eurofins (radiometric) / Eurofins DiscoverX scanMAX / Reaction Biology / SignalChem
In short: as §1

[7] = biological target: T7, PRKD3 (Homo sapiens, UniProt O94806); assay: DiscoverX scanMAX binding assay; conditions: 1 μM
T7 construct: purchased Eurofins (radiometric) / Eurofins DiscoverX scanMAX / Reaction Biology / SignalChem
T7 sequence (O94806 whole entry): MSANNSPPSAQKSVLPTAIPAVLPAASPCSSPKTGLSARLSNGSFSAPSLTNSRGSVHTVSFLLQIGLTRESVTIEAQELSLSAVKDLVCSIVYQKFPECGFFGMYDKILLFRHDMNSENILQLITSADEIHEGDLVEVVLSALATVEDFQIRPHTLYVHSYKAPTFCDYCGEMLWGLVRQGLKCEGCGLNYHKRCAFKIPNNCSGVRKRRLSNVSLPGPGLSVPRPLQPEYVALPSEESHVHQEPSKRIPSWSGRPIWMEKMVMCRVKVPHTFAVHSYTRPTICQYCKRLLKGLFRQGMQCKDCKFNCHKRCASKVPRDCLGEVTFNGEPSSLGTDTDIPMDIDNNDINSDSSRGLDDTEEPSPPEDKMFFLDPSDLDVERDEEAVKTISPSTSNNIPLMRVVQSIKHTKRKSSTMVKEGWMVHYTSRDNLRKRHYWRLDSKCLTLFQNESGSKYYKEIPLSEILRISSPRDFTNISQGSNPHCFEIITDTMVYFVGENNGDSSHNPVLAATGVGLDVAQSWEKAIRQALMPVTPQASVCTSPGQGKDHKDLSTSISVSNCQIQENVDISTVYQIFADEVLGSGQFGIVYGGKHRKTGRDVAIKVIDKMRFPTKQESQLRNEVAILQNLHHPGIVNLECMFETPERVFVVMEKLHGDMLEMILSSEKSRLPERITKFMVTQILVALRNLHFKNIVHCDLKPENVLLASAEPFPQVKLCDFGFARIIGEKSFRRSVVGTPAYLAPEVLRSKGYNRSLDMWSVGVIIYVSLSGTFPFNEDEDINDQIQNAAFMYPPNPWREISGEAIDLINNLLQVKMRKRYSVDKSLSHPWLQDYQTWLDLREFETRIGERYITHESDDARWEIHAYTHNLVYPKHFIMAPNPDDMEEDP
In short: as §1

[8] = biological target: T8, TYK2(JH1domain-catalytic) (Homo sapiens, UniProt P29597); assay: DiscoverX scanMAX binding assay; conditions: 1 μM
T8 construct: TYK2(JH1domain-catalytic); purchased Eurofins (radiometric) / Eurofins DiscoverX scanMAX / Reaction Biology / SignalChem
T8 sequence (P29597 897-1176 limits assumed): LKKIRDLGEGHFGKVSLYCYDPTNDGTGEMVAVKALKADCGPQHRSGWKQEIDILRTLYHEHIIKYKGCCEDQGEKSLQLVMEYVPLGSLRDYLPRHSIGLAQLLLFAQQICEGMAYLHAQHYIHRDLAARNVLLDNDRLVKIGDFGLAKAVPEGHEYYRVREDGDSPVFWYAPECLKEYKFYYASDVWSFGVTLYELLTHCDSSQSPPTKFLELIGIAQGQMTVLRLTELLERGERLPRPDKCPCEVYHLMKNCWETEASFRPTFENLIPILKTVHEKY
In short: as §1

[9] = biological target: T9, GRK2 (Homo sapiens, UniProt P25098); assay: DiscoverX scanMAX binding assay; conditions: 1 μM
T9 construct: purchased Eurofins (radiometric) / Eurofins DiscoverX scanMAX / Reaction Biology / SignalChem
In short: as §1

[10] = biological target: T10, PFCDPK1(P.falciparum) (Plasmodium falciparum, UniProt P62344); assay: DiscoverX scanMAX binding assay; conditions: 1 μM
T10 construct: purchased Eurofins (radiometric) / Eurofins DiscoverX scanMAX / Reaction Biology / SignalChem
T10 sequence (P62344 whole entry): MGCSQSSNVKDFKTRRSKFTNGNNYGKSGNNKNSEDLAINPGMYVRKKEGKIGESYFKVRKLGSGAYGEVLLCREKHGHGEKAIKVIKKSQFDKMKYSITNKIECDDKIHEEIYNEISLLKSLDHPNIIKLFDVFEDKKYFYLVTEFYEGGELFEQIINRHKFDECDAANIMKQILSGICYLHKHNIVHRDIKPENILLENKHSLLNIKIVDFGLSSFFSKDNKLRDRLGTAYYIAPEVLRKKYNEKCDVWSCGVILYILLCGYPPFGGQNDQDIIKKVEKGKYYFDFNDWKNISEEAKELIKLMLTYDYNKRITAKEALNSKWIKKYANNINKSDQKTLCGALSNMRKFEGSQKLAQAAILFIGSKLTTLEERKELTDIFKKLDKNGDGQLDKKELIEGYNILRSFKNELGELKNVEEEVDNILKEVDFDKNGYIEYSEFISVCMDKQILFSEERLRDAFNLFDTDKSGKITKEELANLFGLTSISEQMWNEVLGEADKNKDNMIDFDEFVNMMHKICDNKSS
In short: as §1

[11] = biological target: T11, CDC2L2 (Homo sapiens, UniProt Q9UQ88); assay: DiscoverX scanMAX binding assay; conditions: 1 μM
T11 construct: purchased Eurofins (radiometric) / Eurofins DiscoverX scanMAX / Reaction Biology / SignalChem
T11 sequence (Q9UQ88 whole entry): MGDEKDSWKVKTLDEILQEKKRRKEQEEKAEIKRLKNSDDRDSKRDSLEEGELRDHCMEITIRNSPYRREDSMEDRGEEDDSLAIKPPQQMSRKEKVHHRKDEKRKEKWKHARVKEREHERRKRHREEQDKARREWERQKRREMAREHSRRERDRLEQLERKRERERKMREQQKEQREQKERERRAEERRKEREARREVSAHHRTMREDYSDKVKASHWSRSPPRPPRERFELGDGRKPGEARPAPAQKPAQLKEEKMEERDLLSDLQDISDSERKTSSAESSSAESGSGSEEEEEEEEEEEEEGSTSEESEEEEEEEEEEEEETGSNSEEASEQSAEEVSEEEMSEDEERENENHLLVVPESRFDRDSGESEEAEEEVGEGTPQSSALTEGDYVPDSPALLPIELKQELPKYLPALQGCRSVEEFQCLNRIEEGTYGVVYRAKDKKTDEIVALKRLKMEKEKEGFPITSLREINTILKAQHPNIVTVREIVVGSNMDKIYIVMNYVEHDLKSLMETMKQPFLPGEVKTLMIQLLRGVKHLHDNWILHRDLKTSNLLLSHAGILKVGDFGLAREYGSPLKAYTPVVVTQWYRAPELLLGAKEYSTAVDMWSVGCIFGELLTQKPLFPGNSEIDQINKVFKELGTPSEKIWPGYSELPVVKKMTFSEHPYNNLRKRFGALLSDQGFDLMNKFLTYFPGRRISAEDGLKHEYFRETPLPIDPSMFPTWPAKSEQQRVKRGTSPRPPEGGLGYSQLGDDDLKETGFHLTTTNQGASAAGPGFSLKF
In short: as §1

[12] = biological target: T12, BRAF(V600E) (Homo sapiens, UniProt P15056, V600E); assay: DiscoverX scanMAX binding assay; conditions: 1 μM
T12 construct: purchased Eurofins (radiometric) / Eurofins DiscoverX scanMAX / Reaction Biology / SignalChem

[13] = biological target: T13, RPS6KA5(Kin.Dom.2-C-terminal) (Homo sapiens, UniProt O75582); assay: DiscoverX scanMAX binding assay; conditions: 1 μM
T13 construct: RPS6KA5(Kin.Dom.2-C-terminal); purchased Eurofins (radiometric) / Eurofins DiscoverX scanMAX / Reaction Biology / SignalChem
In short: as §1

[14] = biological target: T14, JAK3(JH1domain-catalytic) (Homo sapiens, UniProt P52333); assay: DiscoverX scanMAX binding assay; conditions: 1 μM
T14 construct: JAK3(JH1domain-catalytic); purchased Eurofins (radiometric) / Eurofins DiscoverX scanMAX / Reaction Biology / SignalChem
T14 sequence (P52333 822-1111 limits assumed): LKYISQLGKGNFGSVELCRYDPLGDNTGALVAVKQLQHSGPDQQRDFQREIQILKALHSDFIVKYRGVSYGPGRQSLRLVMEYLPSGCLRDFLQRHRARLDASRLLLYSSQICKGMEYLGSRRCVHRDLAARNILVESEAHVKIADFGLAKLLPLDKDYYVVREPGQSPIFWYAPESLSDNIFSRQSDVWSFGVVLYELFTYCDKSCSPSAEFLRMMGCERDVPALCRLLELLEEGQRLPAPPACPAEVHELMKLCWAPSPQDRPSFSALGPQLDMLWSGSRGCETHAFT
In short: as §1

[15] = biological target: T15, CSNK1E (Homo sapiens, UniProt P49674); assay: DiscoverX scanMAX binding assay; conditions: 1 μM
T15 construct: purchased Eurofins (radiometric) / Eurofins DiscoverX scanMAX / Reaction Biology / SignalChem
In short: as §1

[16] = biological target: T16, CDK11 (Homo sapiens, UniProt Q9BWU1); assay: DiscoverX scanMAX binding assay; conditions: 1 μM
T16 construct: purchased Eurofins (radiometric) / Eurofins DiscoverX scanMAX / Reaction Biology / SignalChem
In short: as §1

[17] = biological target: T17, HASPIN (Homo sapiens, UniProt Q8TF76); assay: DiscoverX scanMAX binding assay; conditions: 1 μM
T17 construct: purchased Eurofins (radiometric) / Eurofins DiscoverX scanMAX / Reaction Biology / SignalChem
T17 sequence (Q8TF76 whole entry): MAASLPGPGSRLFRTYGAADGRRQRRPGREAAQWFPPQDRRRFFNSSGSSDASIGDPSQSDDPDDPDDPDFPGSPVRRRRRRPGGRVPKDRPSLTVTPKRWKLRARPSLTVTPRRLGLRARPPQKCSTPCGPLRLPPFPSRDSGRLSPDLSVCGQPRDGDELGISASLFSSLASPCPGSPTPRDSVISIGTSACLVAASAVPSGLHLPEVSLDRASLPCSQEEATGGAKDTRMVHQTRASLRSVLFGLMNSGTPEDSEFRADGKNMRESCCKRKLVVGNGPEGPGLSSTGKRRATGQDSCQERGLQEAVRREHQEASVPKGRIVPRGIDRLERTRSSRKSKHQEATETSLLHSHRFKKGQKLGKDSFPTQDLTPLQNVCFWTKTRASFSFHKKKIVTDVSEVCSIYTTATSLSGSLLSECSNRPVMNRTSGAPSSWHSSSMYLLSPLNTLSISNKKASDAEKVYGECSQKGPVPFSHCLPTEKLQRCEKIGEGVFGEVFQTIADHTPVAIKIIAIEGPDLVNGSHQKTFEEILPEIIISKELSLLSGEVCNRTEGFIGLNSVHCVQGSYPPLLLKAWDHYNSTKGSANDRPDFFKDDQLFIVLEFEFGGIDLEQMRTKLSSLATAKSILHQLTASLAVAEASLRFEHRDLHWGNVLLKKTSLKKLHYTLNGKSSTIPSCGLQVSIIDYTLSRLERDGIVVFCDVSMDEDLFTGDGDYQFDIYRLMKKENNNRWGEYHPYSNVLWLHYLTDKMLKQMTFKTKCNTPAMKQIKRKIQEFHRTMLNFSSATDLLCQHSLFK
In short: as §1

[18] = biological target: T18, CHEK2 (Homo sapiens, UniProt O96017); assay: DiscoverX scanMAX binding assay; conditions: 1 μM
T18 construct: purchased Eurofins (radiometric) / Eurofins DiscoverX scanMAX / Reaction Biology / SignalChem
In short: as §1

[19] = biological target: T19, CDK8 (Homo sapiens, UniProt P49336); assay: DiscoverX scanMAX binding assay; conditions: 1 μM
T19 construct: purchased Eurofins (radiometric) / Eurofins DiscoverX scanMAX / Reaction Biology / SignalChem
T19 sequence (P49336 whole entry): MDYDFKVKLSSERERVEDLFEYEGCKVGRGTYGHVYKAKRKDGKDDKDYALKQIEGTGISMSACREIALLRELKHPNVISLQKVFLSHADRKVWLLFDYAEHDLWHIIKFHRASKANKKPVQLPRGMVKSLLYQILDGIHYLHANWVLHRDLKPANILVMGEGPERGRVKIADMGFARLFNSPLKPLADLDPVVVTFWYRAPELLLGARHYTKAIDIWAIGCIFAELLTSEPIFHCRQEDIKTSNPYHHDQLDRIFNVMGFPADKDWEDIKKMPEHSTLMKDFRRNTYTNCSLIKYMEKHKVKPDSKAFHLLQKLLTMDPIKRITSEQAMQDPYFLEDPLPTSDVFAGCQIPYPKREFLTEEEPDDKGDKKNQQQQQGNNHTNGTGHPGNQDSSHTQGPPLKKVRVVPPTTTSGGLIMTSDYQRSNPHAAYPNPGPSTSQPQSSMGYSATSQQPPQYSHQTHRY
In short: as §1

[20] = system: TTBK2; design: method as in earlier work; conditions: screened at 1 μM; cited from earlier work
[21] = biological target: T20, MAP4K5 (Homo sapiens, UniProt Q9Y4K4); assay: DiscoverX scanMAX binding assay; conditions: 1 μM
T20 construct: purchased Eurofins
In short: as §1

[22] = system: TTBK1; design: method as in PMID 33944571; conditions: read-out: TTBK1 IC50 (Biogen biochemical assay); cited from earlier work

CC(C)(O)C#Cc1ccc2[nH]cc(-c3ccnc(N)n3)c2c1 [Compound 3]
PRKD2 % control at 1000nM [1]: 8.3 % control | HIPK1 % control at 1000nM [2]: 9.4 % control | TSSK3 % control at 1000nM / DiscoverX PoC value [3]: 8.1 % control | NIK % control at 1000nM [4]: 9.4 % control | CDC2L1 % control at 1000nM [5]: 4.3 % control | SNARK % control at 1000nM [6]: 1.7 % control | PRKD3 (PKD3) % control at 1000nM / DiscoverX PoC value [7]: 1.3 % control | TYK2(JH1domain-catalytic) % control at 1000nM [8]: 6.3 % control | GRK2 % control at 1000nM [9]: 9.1 % control | PFCDPK1(P.falciparum) % control at 1000nM [10]: 7.8 % control | CDC2L2 % control at 1000nM [11]: 6.6 % control | BRAF(V600E) % control at 1000nM [12]: 6.5 % control | RPS6KA5(Kin.Dom.2-C-terminal) % control at 1000nM [13]: 8.9 % control | JAK3(JH1domain-catalytic) % control at 1000nM [14]: 1.8 % control

CC(C)(O)C#Cc1ccc2[nH]c3c(c2c1)-c1nc(N)ncc1CC3 [Compound 1]
CSNK1E % control at 1000nM / DiscoverX PoC value [15]: 6.2 % control | CDK11 % control at 1000nM [16]: 4.7 % control | HASPIN % control at 1000nM [17]: 0.3 % control | CHEK2 (CHK2) % control at 1000nM / DiscoverX PoC value [18]: 7.9 % control | CDK8 % control at 1000nM [19]: 4.8 % control

CC(C)(O)C#Cc1ccc2[nH]c3c(c2c1)-c1nc(N)ncc1CCC3 [AMG28, reference compound]
TTBK2 activity remaining [20]: 12% | MAP4K5 % control at 1000nM / DiscoverX PoC value [21]: 6.6 % control | IC50 [22]: […]
